# Experimental data reported in patent US6890727B2, “Diagnostic assay for Alzheimer's disease: assessment of Aβ abnormalities” (The General Hospital Corporation, priority 1994, dated 2005).
# Legend:
# [1] = 65Zn2+ binding to immobilized peptide (dot-blot, Scatchard competition analysis); conditions: unlabeled metal ions 50 μM total
# Experimental: ^65Zn^2+ Binding Studies—Dissolved peptides (1.2 nMol, unless other wise stated) were dot-blotted onto polyvinylidene difluoride membrane (0.2-μm pore size; Pierce Chemical Co.), washed twice with chelating buffer (200 μl×100 mM NaCl, 20 mM Tris-HCl, 1 mM EDTA, pH 7.4), then five times with blocking buffer (200 μl×100 mM NaCl, 20 mM Tris-HCl, 1 mM MnCl2, pH 7.4), and then incubated (60 min, 20° C.) with ^65Zn (unless otherwise stated 130,000 cpm, […] ^65ZnCl2 in 200 μl of blocking buffer±competing metal ion chloride). The dot-blot was then washed with blocking buffer (5×200 μl), the dot excised, placed in a test tube, and assayed by γ-counting (11% efficiency). The equilibration volume for stoichiometry estimates was regarded as 6×200 μl. The 214 nm UV absorbance of the unbound flow-through was assayed to determine the total amount of peptide remaining bound onto the membrane. […] To alter the pH, the ^65Zn incubation was carried out in the presence of 100 mM buffer: MOPS (pH 6.5-7.0), MES (pH 5.0-6.0), acetate (pH 3.5-4.5). The dot-blot apparatus was washed with detergent and EDTA (50 mM) then rinsed and siliconized between use.
# Aliquots of Aβ were incubated (60 min) with ^65Zn^2+ in the presence of varying concentrations of unlabeled Zn^2+ (0.01-50 μM total). Values shown are means±S.D., n≧3. […] (FIG. 1b) depicts specificity of the Zn^2+ binding site for various metals. Aβ was incubated (60 min) with ^65 Zn^2+ (157 nM, 138,000 cpm) and competing unlabeled metal ions (50 μM total). […] Percent binding of total counts ^65Zn^2+/min added is corrected for the amounts (in nanomoles) of peptides adhering to the membrane. […] 157 nM ^65Zn (138,000 cpm) is used in this experiment to probe immobilized peptide (1.6 nmol).
# Aβ = target: T1, Aβ (Homo sapiens, UniProt P05067); test: G50 gel filtration chromatography of Aβ in presence of metal ions or EDTA; conditions: 25 μM total metal ion
# T1 construct: purchased Sigma; Bachem (results also replicated with peptide from the Keck Laboratory, Yale); host or cells: chemical synthesis
# Experimental: Aβ was stored in aliquots of 0.52 mg/ml in water at −20° C., then kept at 4° C. when thawed. Reagents were mixed without vortex mixing. The incubated Aβ was directly applied to a G50 SF (Pharmacia, Uppsala, Sweden) column (Bio-Rad Econo-Column, 30×0.7 cm) pre-equilibrated with metal salt solution or EDTA (50 μM) in TBS at 20° C. and eluted at 8 ml/h (Wiz peristaltic pump, Isco, Lincoln, Nebr.). Absorbance was measured at 254 and 214 nm (Type 6 optical unit, Isco). The amount of Aβ eluting at various peaks was estimated from the area under the curve. […] Because the sample eluted in a volume of approximately 15 ml, the average concentration of the peptide on the column was 0.8 μM.
# To study the effects of protein blocking upon adsorption of β to the chromatography column, a Sephadex G50 SF column which had been characterized previously for Aβ behavior was eluted with 3% bovine serum albumin (BSA) in TBS (50 ml) and equilibrated with non-BSA-containing buffer, subsequent to repeating the Aβ experiments.
# The elution points of molecular mass standards and relative assignments of Aβ peak elutions are indicated. Mass standards were blue dextran (2×10^6 kDa, V0=void volume), BSA (66 kDa), carbonic anhydrase (29 kDa), cytochrome c (12.4 kDa), and aprotinin (6.5 kDa). The mass of Aβ is 4.3 kDa. […] Data for experiments performed in the presence of copper were taken from 214 nm readings and corrected for comparison.
# T1 sequence (P05067 672-711): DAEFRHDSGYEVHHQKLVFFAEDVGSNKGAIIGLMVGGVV
structure (smiles),measurement,setting,value
"[Zn+2] [Zn^2+, zinc]",competition of unlabeled metal ion with ^65Zn^2+ for Aβ,[1],capable of competing off the label
same,Aβ applied to the column that is eluted,Aβ,< 20%
